# Assay results from PMC9598282 (Antibiotics, 2022).
# Assays:
# Experiment in all cases: microbe, parasite or virus in culture
# [1] = test system: E. coli ATCC 25922; assay type: cell-based, Escherichia coli; parameters: key to FIC index antibiotic + GCol / FIC index antibiotic + GPMB: sum of FICs; ≤0.5 synergy, 0.5–4 additivity, >4 antagonism; details: for MIC: Escherichia coli, ATCC25922, 18 h, read-out: MIC alone; for MIC / MIC alone: agent alone, one value per checkerboard plate
# Description: (§1) The adjuvant properties of the guanidinylated polymyxins were evaluated using the checkerboard assay as previously described. The bacterial solution was prepared as described in the antimicrobial susceptibility assay. The antibiotic of interest and the adjuvant were serially diluted two-fold along the x- and y-axis on a 96-well plate, respectively, resulting in varying concentrations of both agents in each well. Equal volumes of bacterial solution were added to the designated wells. The well consisting of bacterial solution served as the positive control, while the wells containing only media served as the negative control. The plate was then incubated at 37 °C for 18 h. After incubation, an Emax Plus microplate reader (Molecular Devices, Union City, CA, USA) was used to measure the OD at a wavelength of 590 nm to confirm the turbidity. The fractional inhibitory concentration (FIC) index was then determined to establish the relationship between the antibiotic and adjuvant. The FIC index corresponds to the sum of the FICs of the antibiotic and adjuvant. The FIC of each agent is calculated by dividing its MIC when it is used in combination by its MIC when used alone. FIC indices ≤0.5, 0.5 < x ≤ 4 and >4 indicate synergy, additivity and antagonism, respectively.
# [2] = test system: P. aeruginosa PAO1; assay type: cell-based, Pseudomonas aeruginosa; details: for MIC: Pseudomonas aeruginosa, PAO1, 18 h, read-out: MIC alone
# Description: as §1
# [3] = test system: A. baumannii ATCC 17978; assay type: cell-based, Acinetobacter baumannii; details: for MIC: Acinetobacter baumannii, ATCC17978, 18 h, read-out: MIC alone; for MIC / MIC alone: agent alone, one value per checkerboard plate
# Description: as §1
# [4] = agent alone, one value per checkerboard plate
SMILES,Absolute MIC of antibiotic at 2 μg/mL GCol [1] [µg/mL],Absolute MIC of antibiotic at 2 μg/mL GPMB [1] [µg/mL],MIC [1] [µg/mL],Absolute MIC of antibiotic at 4 μg/mL GCol [2] [µg/mL],Absolute MIC of antibiotic at 4 μg/mL GPMB [2] [µg/mL],"MIC [2, 4] [µg/mL]",Absolute MIC of antibiotic at 2 μg/mL GCol [3] [µg/mL],Absolute MIC of antibiotic at 2 μg/mL GPMB [3] [µg/mL],MIC [3] [µg/mL],FIC index antibiotic + GCol [1],FIC index antibiotic + GPMB [1],Fold-potentiation of antibiotic ([1]; at 2 μg/mL GCol),Fold-potentiation of antibiotic ([1]; at 2 μg/mL GPMB),Fold-potentiation of antibiotic ([2]; at 4 μg/mL GCol),Fold-potentiation of antibiotic ([2]; at 4 μg/mL GPMB),FIC index antibiotic + GPMB [3],Fold-potentiation of antibiotic ([3]; at 2 μg/mL GCol),Fold-potentiation of antibiotic ([3]; at 2 μg/mL GPMB),other results
O=C(N[C@H](CO)[C@H](O)c1ccc([N+](=O)[O-])cc1)C(Cl)Cl [Chloramphenicol],0.5,0.5,2,4,2,32,64,32,64,0.375,0.5,4,4,8,16,0.563,1,2,
CCC[C@@H]1C[C@@H](C(=O)N[C@@H]([C@H]2O[C@H](SC)[C@H](O)[C@@H](O)[C@H]2O)[C@H](C)Cl)N(C)C1 [Clindamycin],4,8,64,8,8,1020,512,64,1020,0.125,0.313,16,16,128,256,0.375,2,16,"MIC alone [1]: 128 µg/mL; FIC index antibiotic + GPMB [2]: 0.254; MIC alone [2, 4]: 2048 µg/mL"
C[C@H]1c2cccc(O)c2C(=O)C2=C(O)[C@]3(O)C(=O)C(C(N)=O)=C(O)[C@@H](N(C)C)[C@@H]3[C@@H](O)[C@@H]21 [Doxycycline],,,,1,0.5,8,0.125,0.063,0.125,,,,,,,,,,MIC alone [3]: 0.063 µg/mL
CC(=O)NC[C@H]1CN(c2ccc(N3CCOCC3)c(F)c2)C(=O)O1 [Linezolid],16,8,128,128,32,1020,128,64,256,0.25,0.25,8,16,8,32,0.375,2,4,
CN(C)c1ccc(O)c2c1C[C@H]1C[C@H]3[C@H](N(C)C)C(O)=C(C(N)=O)C(=O)[C@@]3(O)C(O)=C1C2=O [Minocycline],0.25,0.125,1,0.5,0.5,16,0.125,0.063,0.125,0.281,0.25,4,8,32,32,0.5,1,4,MIC alone [3]: 0.25 µg/mL
CO[C@@H]1[C@@H](OC(N)=O)[C@@H](O)[C@H](Oc2ccc3c(O)c(NC(=O)c4ccc(O)c(CC=C(C)C)c4)c(=O)oc3c2C)OC1(C)C [Novobiocin],0.125,0.25,128,128,4,1020,0.5,0.063,8,0.02,0.012,1024,256,8,256,0.07,16,256,MIC alone [1]: 64 µg/mL
C=C[C@]1(C)C[C@@H](OC(=O)CO)[C@]2(C)[C@H](C)CC[C@]3(CCC(=O)[C@H]32)[C@@H](C)[C@@H]1O [Pleuromutilin],0.25,0.125,64,256,32,1020,32,2,512,0.066,0.035,256,512,4,32,0.129,16,256,

# Now those with a lower MIC [2, 4], led by results:
Absolute MIC of antibiotic at 2 μg/mL GCol [1] [µg/mL],Absolute MIC of antibiotic at 2 μg/mL GPMB [1] [µg/mL],MIC [1] [µg/mL],Absolute MIC of antibiotic at 4 μg/mL GCol [2] [µg/mL],Absolute MIC of antibiotic at 4 μg/mL GPMB [2] [µg/mL],"MIC [2, 4] [µg/mL]",Absolute MIC of antibiotic at 2 μg/mL GCol [3] [µg/mL],Absolute MIC of antibiotic at 2 μg/mL GPMB [3] [µg/mL],MIC [3] [µg/mL],SMILES,FIC index antibiotic + GCol [1],FIC index antibiotic + GPMB [1],Fold-potentiation of antibiotic ([1]; at 2 μg/mL GCol),Fold-potentiation of antibiotic ([1]; at 2 μg/mL GPMB),Fold-potentiation of antibiotic ([2]; at 4 μg/mL GCol),Fold-potentiation of antibiotic ([2]; at 4 μg/mL GPMB),FIC index antibiotic + GPMB [3],Fold-potentiation of antibiotic ([3]; at 2 μg/mL GCol),Fold-potentiation of antibiotic ([3]; at 2 μg/mL GPMB),other results
0.125,0.063,2,1,1,4,64,64,64,CCN1CCN(C(=O)N[C@@H](C(=O)N[C@@H]2C(=O)N3[C@@H]2SC(C)(C)[C@@H]3C(=O)O)c2ccccc2)C(=O)C1=O [Piperacillin],0.188,0.281,16,32,4,4,0.375,1,1,
1,1,2,2,2,2,1,2,1,NC[C@H]1O[C@H](O[C@H]2[C@H](O)[C@@H](O[C@H]3O[C@H](CO)[C@@H](O)[C@H](N)[C@H]3O)[C@H](N)C[C@@H]2N)[C@H](N)C[C@@H]1O [Tobramycin],0.516,1.031,2,1,1,1,1,1,1,FIC index antibiotic + GPMB [2]: 1.016
0.008,0.004,0.016,,,1,0.063,0.063,0.063,COc1c(N2C[C@@H]3CCCN[C@@H]3C2)c(F)cc2c(=O)c(C(=O)O)cn(C3CC3)c12 [Moxifloxacin],,,,,,,,,,
0.008,0.032,,0.0625,0.03125,0.5,0.125,0.063,0.125,C[C@H]1COc2c(N3CCN(C)CC3)c(F)cc3c(=O)c(C(=O)O)cn1c23 [Levofloxacin],0.531,0.563,2,2,8,8,1,1,1,FIC index antibiotic + GPMB [2]: 0.375; MIC alone [3]: 0.063 µg/mL
